Data taken from US8664199B2, “Method and system for reversal of interactions between hydrophobically modified biopolymers and vesicles or cell membranes” (University of Maryland, College Park, priority 2010, dated 2014).
Entries after “also recorded” stand apart in the source; their conditions may differ.

Columns and labels:
[1] = test system: human heparinized blood; assay: Visual observation / vial inversion of blood gelled by hm-chitosan; assay type: cell-based; details: 3 wt % α-CD added to blood gel formed with 0.25 wt % hm-chitosan
Protocol: (§1) 5 human subjects volunteered to have 20 mL of blood drawn by a registered nurse at the UMD School of Medicine. Subjects were healthy adults ranging age from 20 to 40 years of age (4 males, 1 female). 10 mL intervals of blood were drawn into Becton Dickinson Vacutainers® containing 143 USP units of sodium heparin. The protocol was approved by the Institutional Research Board (IRB) at UMD.
FIG. 3(a) is a photograph of human heparinized blood gelled by 0.25 wt % hm-chitosan. […] Note that this sample […] hold its own weight upon vial inversion.

[2] = Dynamic rheology of hm-chitosan + vesicle mixtures; assay type: physicochemical; details: 28.6 mM cyclodextrin; hm-chitosan 0.238 wt %, vesicles 0.952 wt %
From the text: (§2) The surfactant system employed was a mixture of the cationic surfactant, cetyl trimethylammonium tosylate (CTAT), and the anionic surfactant, sodium dodecyl benzene sulfonate (SDBS). The surfactants were purchased from Aldrich, and all solutions were made using distilled-deionized water. The phase diagram for CTAT/SDBS mixtures has been reported previously.^31 To form vesicles, CTAT and SDBS were mixed at a weight ratio of 70/30, respectively, at a combined 2 wt % concentration in water. The mixture was stirred overnight to ensure complete dissolution and equilibration of the vesicles prior to experiments.
(§3) Steady and dynamic rheological experiments were performed on a […] AR2000 stress-controlled rheometer. A cone-and-plate geometry of 40 mm diameter and 4° cone angle was used and samples were run at the physiological temperature of 37° C. Dynamic frequency spectra were obtained in the linear viscoelastic regime of the samples, as determined from dynamic strain sweep experiments.
However, at practical time scales, the hm-chitosan+vesicle+α-CD mixture behaves as a freely flowing liquid.

[3] = general statement, no test described; cited from earlier work
[4] = test system: human heparinized blood; assay: Dynamic rheology of hm-chitosan blood gel; assay type: cell-based; details: 3 wt % α-CD, 0.25 wt % hm-chitosan blood gel, 37° C.
Protocol: as §1, §3

[5] = Steady shear rheology of hm-chitosan + vesicle mixtures; assay type: physicochemical; details: for zero-shear viscosity: hm-chitosan (benz-C18, 1.5% modified) 0.238 wt %, 37° C.; for zero-shear viscosity / viscosity drop on addition of cyclodextrin: vesicles 0.952 wt %; for viscosity drop on addition of cyclodextrin: 28.6 mM vs 0 mM cyclodextrin, hm-chitosan 0.238 wt %; for reversal of gelation of vesicles by hm-chitosan: hm-chitosan and vesicle mixtures
From the text: as §2, §3
The concentrations of hm-chitosan and vesicles were held constant at 0.238 wt % and 0.952 wt %, respectively, in both samples. One sample contained 0 mM α-CD (open diamonds) and the other contained 28.6 mM α-CD (open circles).

SMILES	reversal of blood gelation (visual observation) [1]	dynamic rheology behaviour as ω→0 (long time scales) [2]	dynamic rheology response [2]	solubility (solvent) [3]	dynamic rheology response (G′, G″) of blood gel after supramolecule [4]	zero-shear viscosity ([5]; 28.6 mM cyclodextrin)	viscosity drop on addition of cyclodextrin [5]	reversal of gelation of vesicles by hm-chitosan [5]	zero-shear viscosity ([5]; 0 mM cyclodextrin, in Pa·s)	viscosity drop relative to the drop caused by α-CD ([5]; 28.6 mM cyclodextrin)
OC[C@H]1O[C@@H]2O[C@H]3[C@H](O)[C@@H](O)[C@@H](O[C@H]4[C@H](O)[C@@H](O)[C@@H](O[C@H]5[C@H](O)[C@@H](O)[C@@H](O[C@H]6[C@H](O)[C@@H](O)[C@@H](O[C@H]7[C@H](O)[C@@H](O)[C@@H](O[C@H]1[C@H](O)[C@H]2O)O[C@@H]7CO)O[C@@H]6CO)O[C@@H]5CO)O[C@@H]4CO)O[C@@H]3CO [α-CD, α-cyclodextrin]	quickly reverse the gelling and convert the sample into a thin, flowing liquid; also recorded: instantly reverse the gelling and convert the sample into a thin, flowing liquid; also recorded: disruption of the gel into a freely flowing viscous liquid	G′ and G″ are observed to overlap, indicating the onset of gelation over long time scales	viscous liquid	soluble in water	liquid-like with G″>G′ over the frequency range	~0.01 Pa·s	million-fold	reverse the gelation of vesicles by hm-chitosan		
OC[C@H]1O[C@@H]2O[C@H]3[C@H](O)[C@@H](O)[C@@H](O[C@H]4[C@H](O)[C@@H](O)[C@@H](O[C@H]5[C@H](O)[C@@H](O)[C@@H](O[C@H]6[C@H](O)[C@@H](O)[C@@H](O[C@H]7[C@H](O)[C@@H](O)[C@@H](O[C@H]8[C@H](O)[C@@H](O)[C@@H](O[C@H]1[C@H](O)[C@H]2O)O[C@@H]8CO)O[C@@H]7CO)O[C@@H]6CO)O[C@@H]5CO)O[C@@H]4CO)O[C@@H]3CO [β-CD, β-cyclodextrin]				more soluble in ethyl alcohol						
OC[C@H]1O[C@@H]2O[C@H]3[C@H](O)[C@@H](O)[C@@H](O[C@H]4[C@H](O)[C@@H](O)[C@@H](O[C@H]5[C@H](O)[C@@H](O)[C@@H](O[C@H]6[C@H](O)[C@@H](O)[C@@H](O[C@H]7[C@H](O)[C@@H](O)[C@@H](O[C@H]8[C@H](O)[C@@H](O)[C@@H](O[C@H]9[C@H](O)[C@@H](O)[C@@H](O[C@H]1[C@H](O)[C@H]2O)O[C@@H]9CO)O[C@@H]8CO)O[C@@H]7CO)O[C@@H]6CO)O[C@@H]5CO)O[C@@H]4CO)O[C@@H]3CO [γ-CD, γ-cyclodextrin]		G′ and G″ are not observed to overlap, indicating that the sample does not become more gel-like as t→∞	viscous liquid	soluble in water			thousand-fold	reverse the gelation of vesicles by hm-chitosan	~10^1	thousand-fold lower
